The source of these data is ChEMBL document CHEMBL4387776, “Discovery of novel 9H-purin derivatives as dual inhibitors of HDAC1 and CDK2” (Bioorg Med Chem Lett, 2019).

One test concerns HepG2. The test is described as follows: Antiproliferative activity against human HepG2 cells measured after 72 hrs by CCK8 assay. In kind it is functional, cell-based. As to conditions: HepG2, 72 h.
The next test deals with CDK2/Cyclin A2 (Homo sapiens, UniProt P24941). The experiment in a line: Inhibition of wild-type human N-terminal GST-tagged CDK2/cycA2 expressed in Sf21 insect cells using FAM-labelled substrate preincubated for 10 mins followed by substrate addition and measured after 30 mins by fluorescence assay.
The next test deals with CAL-148. The test is described as follows: Antiproliferative activity against human CAL148 cells measured after 72 hrs by CCK8 assay. As to conditions: CAL-148, 72 h. It counts as functional, cell-based.
Another test relates to A549. The experiment in a line: Antiproliferative activity against human A549 cells measured after 72 hrs by CCK8 assay. Particulars: A549, 72 h. It counts as functional, cell-based.
In the next test the target is Histone deacetylase 1 (Homo sapiens, UniProt Q13547). The experiment in a line: Inhibition of recombinant human full-length C-terminal FLAG-tagged HDAC1 expressed in baculovirus expression system using Ac-peptide-AMC as substrate preincubated for 15 mins followed by substrate addition by fluorescence assay.
Histone deacetylase 1, sequence (Q13547 whole entry): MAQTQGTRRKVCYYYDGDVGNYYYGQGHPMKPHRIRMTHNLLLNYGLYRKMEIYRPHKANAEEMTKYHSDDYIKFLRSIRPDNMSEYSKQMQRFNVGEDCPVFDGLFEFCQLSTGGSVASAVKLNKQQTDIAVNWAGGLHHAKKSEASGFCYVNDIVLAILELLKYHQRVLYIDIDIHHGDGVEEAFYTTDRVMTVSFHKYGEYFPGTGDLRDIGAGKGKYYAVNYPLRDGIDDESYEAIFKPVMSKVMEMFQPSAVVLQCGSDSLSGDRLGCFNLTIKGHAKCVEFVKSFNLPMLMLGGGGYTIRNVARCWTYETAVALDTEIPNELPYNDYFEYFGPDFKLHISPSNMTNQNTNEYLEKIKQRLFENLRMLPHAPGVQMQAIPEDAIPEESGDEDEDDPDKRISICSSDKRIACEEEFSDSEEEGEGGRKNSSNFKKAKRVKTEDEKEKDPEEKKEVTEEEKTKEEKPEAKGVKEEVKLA

For the molecule `CC(C)n1cnc2c(NCc3cccc(/C=C/C(=O)NO)c3)nc(N3CCOCC3)nc21`, the IC50 in the test on HepG2 was 220 nM; against CDK2/Cyclin A2, 127 nM; with CAL-148, 390 nM; in the test on A549 it was 1260 nM; at Histone deacetylase 1, 7 nM.
Consider `CCn1cnc2c(NCc3cccc(/C=C/C(=O)NO)c3)nc(N3CCOCC3)nc21`, for which the IC50 stood at 770 nM with HepG2; 56 nM against CDK2/Cyclin A2; 1140 nM in the test on CAL-148; 1490 nM in the test on A549; 5.8 nM at Histone deacetylase 1.
Turning to `Cc1[nH]c2ccccc2c1CCNCc1ccc(/C=C/C(=O)NO)cc1` [PANOBINOSTAT], the IC50 is < 100 nM with HepG2, < 100 nM with CAL-148 and 20 nM with A549.
With `CC[C@H](CO)Nc1nc(NCc2ccccc2)c2ncn(C(C)C)c2n1` [SELICICLIB], the IC50 with HepG2 was 15800 nM; in the test on CAL-148, > 10000 nM; with A549, > 10000 nM.
